Measured values reported in ChEMBL document CHEMBL1201862, “PubChem BioAssay data set” (2004).
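Five compound concentrations were applied to cells in 96-well plates for 48 hours; endpoints were derived by simple linear interpolation of the resulting dose-response curve. The concentration for 50% growth inhibition is given as GI50.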 Activity calls are given as the source filed them. Rule as the data show it: active = GI50 up to about 1.1 µM and inactive = higher.

Assays:
Assay in all cases: DTP human tumour cell line panel, 48 h
LOX IMVI = tested on: LOX IMVI
UO-31 = tested on: UO-31
TK-10 = tested on: TK-10
HCC 2998 = tested on: HCC 2998
SW-620 = tested on: SW-620
RPMI-8226 = tested on: RPMI-8226
KM12 = tested on: KM12
A549 = tested on: A549
COLO 205 = tested on: COLO 205
OVCAR-3 = tested on: OVCAR-3
HOP-62 = tested on: HOP-62
U-251 = tested on: U-251
SK-OV-3 = tested on: SK-OV-3
K562 = tested on: K562
NCI-H226 = tested on: NCI-H226
SF-268 = tested on: SF-268
SN12C = tested on: SN12C
MCF7 = tested on: MCF7
PC-3 = tested on: PC-3

| SMILES | GI50 (LOX IMVI) | GI50 (UO-31) | GI50 (TK-10) | GI50 (HCC 2998) | GI50 (SW-620) | GI50 (RPMI-8226) | GI50 (KM12) | GI50 (A549) | GI50 (COLO 205) | GI50 (OVCAR-3) | GI50 (HOP-62) | GI50 (U-251) | GI50 (SK-OV-3) | GI50 (K562) | GI50 (NCI-H226) | GI50 (SF-268) | GI50 (SN12C) | GI50 (MCF7) | GI50 (PC-3) |
| --- | --- | --- | --- | --- | --- | --- | --- | --- | --- | --- | --- | --- | --- | --- | --- | --- | --- | --- | --- |
| CC1C=C(CCCCCCCCCCCC[C@@H](O)[C@@H]2CC[C@@H]([C@@H]3CC[C@@H](C(O)CCCCCCCCCCCCC4=C[C@H](C)OC4=O)O3)O2)C(=O)O1 (stereo not given in full) | 12.2 µM (inactive) | 6.67 µM (inactive) | > 100 µM (inactive) | > 100 µM (inactive) | > 57.3 µM (inactive) | 0.518 µM (active) | > 68.1 µM (inactive) | 4.5 µM (inactive) | 41.2 µM (inactive) | 23 µM (inactive) | > 100 µM (inactive) | 23.7 µM (inactive) | > 100 µM (inactive) | 0.993 µM (active) | 31 µM (inactive) | > 47.5 µM (inactive) | > 100 µM (inactive) |  |  |
| O=C(c1ccc(Cl)cc1Cl)C1[C@H]2C(=O)N(c3ccc(Cc4ccc(N5C(=O)[C@@H]6ON(c7ccccc7)C(C(=O)c7ccc(Cl)cc7Cl)[C@@H]6C5=O)cc4)cc3)C(=O)[C@H]2ON1c1ccccc1 (stereo not given in full) | > 50 µM (inactive) | > 50 µM (inactive) | > 50 µM (inactive) | > 50 µM (inactive) | > 50 µM (inactive) | > 50 µM (inactive) | > 50 µM (inactive) | > 50 µM (inactive) | > 50 µM (inactive) | > 50 µM (inactive) | > 50 µM (inactive) | > 50 µM (inactive) | > 50 µM (inactive) | > 50 µM (inactive) | > 50 µM (inactive) | > 50 µM (inactive) | > 50 µM (inactive) |  |  |
| Cc1nnc(N/N=C2/C(=O)Nc3c(Cl)cc(Cl)cc32)n1N | > 100 µM (inactive) | > 100 µM (inactive) | > 100 µM (inactive) | > 100 µM (inactive) | > 100 µM (inactive) | > 100 µM (inactive) | > 100 µM (inactive) | > 100 µM (inactive) | > 100 µM (inactive) | > 100 µM (inactive) | > 100 µM (inactive) | > 100 µM (inactive) | > 100 µM (inactive) | > 100 µM (inactive) | > 100 µM (inactive) | > 100 µM (inactive) | > 100 µM (inactive) |  |  |
| C=C1C(=O)O[C@@H]2C[C@@H](C)[C@@H]3C=CC(=O)[C@@]3(C)[C@@H](OC(=O)CC(=O)O[C@H]3[C@@H]4C(=C)C(=O)O[C@@H]4C[C@@H](C)[C@@H]4C=CC(=O)[C@]43C)[C@H]12 | < 0.0335 µM (active) | 0.137 µM (active) | 0.117 µM (active) | 0.146 µM (active) | 0.0129 µM (active) | 0.0124 µM (active) | 0.0478 µM (active) | 0.431 µM (active) | < 0.0148 µM (active) | 0.033 µM (active) | 0.44 µM (active) | 0.0356 µM (active) | 0.256 µM (active) | 0.0154 µM (active) | 0.102 µM (active) | 0.0582 µM (active) | 0.0348 µM (active) | 0.0356 µM (active) | 0.146 µM (active) |
| c1ccc(C[P+]2(c3ccccc3)c3ccccc3-c3ccccc32)cc1 | > 100 µM (inactive) | > 100 µM (inactive) | > 100 µM (inactive) | > 100 µM (inactive) | > 100 µM (inactive) | > 100 µM (inactive) | > 100 µM (inactive) | > 100 µM (inactive) | > 100 µM (inactive) | > 100 µM (inactive) | > 100 µM (inactive) |  | > 100 µM (inactive) | > 100 µM (inactive) | > 100 µM (inactive) | > 100 µM (inactive) | > 100 µM (inactive) | > 100 µM (inactive) | > 100 µM (inactive) |
| CN1C(=O)CC(CC(=O)C2CCCCC2=O)CC1=O (stereo not given) | > 100 µM (inactive) | > 100 µM (inactive) | > 100 µM (inactive) | > 100 µM (inactive) | > 100 µM (inactive) | > 100 µM (inactive) | > 100 µM (inactive) | > 100 µM (inactive) | > 100 µM (inactive) | > 100 µM (inactive) | > 100 µM (inactive) | > 100 µM (inactive) | > 100 µM (inactive) | > 100 µM (inactive) | > 100 µM (inactive) | > 100 µM (inactive) | > 100 µM (inactive) |  |  |
